Data reported in US11655216B2 (priority 2016, dated 2023).
Where two headings read alike, the source gives them in different places.

Assays:
[1] = biological target: T1, glutathione-S-transferase (GST) tagged LXRbeta LBD (ligand binding domain) (Homo sapiens, UniProt P55055); experiment: LanthaScreen TR-FRET Liver X Receptor Coactivator Assay, LXR beta; assay type: biochemical; settings: for EC50: LXR beta IP, potency (Inflection Point), compound-induced co-activator recruitment, TR-FRET; for Emax: read-out: LXR beta actiivty at max dose, efficacy (% Emax) in relation to reference dual agonist T0901317
T1 construct: purchased Invitrogen pv4658
T1 sequence (P55055 222-460 limits assumed): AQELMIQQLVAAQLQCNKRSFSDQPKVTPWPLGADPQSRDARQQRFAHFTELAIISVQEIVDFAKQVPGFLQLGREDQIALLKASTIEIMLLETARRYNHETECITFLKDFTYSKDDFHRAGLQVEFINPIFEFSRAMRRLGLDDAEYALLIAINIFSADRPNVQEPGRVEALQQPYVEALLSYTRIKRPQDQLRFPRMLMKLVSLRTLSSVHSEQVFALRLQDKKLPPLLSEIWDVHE
Experimental: (§1) While running the LanthaScreen™ TR-FRET Liver X Receptor Coactivator Assay, LXR alpha-LBD or LXR beta-LBD was added to ligand test compounds followed by addition of a mixture of a fluorescein-labelled coactivator peptide and terbium-conjugated anti-GST antibody. After an incubation period at room temperature, TR-FRET (time-resolved fluorescence resonance energy transfer) was measured using a filter-based instrument capable of TR-FRET, e.g. PerkinElmer Envision.

[2] = biological target: T2, glutathione-S-transferase (GST) tagged LXRalpha LBD (ligand binding domain) (Homo sapiens, UniProt Q13133); experiment: biochemical
T2 construct: purchased Invitrogen pv4655
T2 sequence (Q13133 209-447 limits assumed): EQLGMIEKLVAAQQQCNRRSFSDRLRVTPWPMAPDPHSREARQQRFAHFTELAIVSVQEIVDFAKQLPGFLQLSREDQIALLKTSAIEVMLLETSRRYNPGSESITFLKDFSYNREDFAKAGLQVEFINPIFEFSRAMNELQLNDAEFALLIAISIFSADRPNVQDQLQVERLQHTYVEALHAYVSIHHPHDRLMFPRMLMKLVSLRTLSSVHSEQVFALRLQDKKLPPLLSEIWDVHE
Experimental: as §1

[3] = potency (Inflection Point), compound-induced co-activator recruitment, TR-FRET
[4] = read-out: LXR alpha actiivty at max dose, efficacy (% Emax) in relation to reference dual agonist T0901317
[5] = LXR alpha IP, potency (Inflection Point), compound-induced co-activator recruitment, TR-FRET
[6] = efficacy (% Emax) in relation to reference dual agonist T0901317, read-out: LXR alpha actiivty at max dose

Structure (SMILES)	EC50 [1] [nM]	Emax [1] [%]	LXR alpha IP [2, 3]	Emax [2, 4] [%]	EC50 [2, 5] [nM]	EC50 ([2]; LXR alpha IP) [nM]	Emax ([2]; read-out: LXR alpha actiivty at max dose) [%]	Emax [2, 6] [%]	EC50 ([2]; potency (Inflection Point), compound-induced co-activator recruitment, TR-FRET, read-out: LXR alpha IP) [nM]
CC(C)N(C)C(=O)c1ccc(OCCCCC2CCN(C(=O)[C@](O)(c3ccccc3)C(F)(F)F)CC2)cc1Cl (single isomer, unassigned) [Example 8-17, (R or S)-2-chloro-N-isopropyl-N-methyl-4-(4-(1-(3,3,3-trifluoro-2-hydroxy-2-phenylpropanoyl)piperidin-4-yl)butoxy) benzamide]	17	50	No IP	10					
CNC(=O)c1ccc(OCCCCC2CCN(C(=O)[C@](O)(c3cccc(OC)c3)C(F)(F)F)CC2)cc1Cl (single isomer, unassigned) [Example 8-18, (R or S)-2-chloro-N-methyl-4-(4-(1-(3,3,3-trifluoro-2-hydroxy-2-(3-methoxyphenyl)propanoyl)piperidin-4-yl)butoxy) benzamide]	14	91		31	742				
CN(C)CCCNC(=O)c1ccc(OCCCCC2CCN(C(=O)[C@](O)(c3ccccc3)C(F)(F)F)CC2)cc1Cl (single isomer, unassigned) [Example 8-19, (R or S)-2-chloro-N-(3-(dimethylamino)propyl)-4-(4-(1-(3,3,3-trifluoro-2-hydroxy-2-phenylpropanoyl)piperidin-4-yl)butoxy) benzamide]	33	53		36	1240				
COc1cccc([C@@](O)(C(=O)N2CCC([C@H]3C[C@H]3CCOc3ccc(C(=O)N(C)C)c(Cl)c3)CC2)C(F)(F)F)c1 (single isomer, unassigned) [Example 10-1, 2-chloro-N,N-dimethyl-4-(2-((1S,2R or 1R, 2S)-2-(1-((R or S)-3,3,3-trifluoro-2-hydroxy-2-(3-methoxyphenyl)propanoyl)piperidin-4-yl)cyclopropyl)ethoxy)benzamide]	5	66				117	14		
CN(C)C(=O)c1ccc(OCC[C@@H]2C[C@@H]2C2CCN(C(=O)c3c(F)cccc3F)CC2)cc1Cl (single isomer, unassigned) [Example 10-2, 2-chloro-4-(2-((1S,2R or 1R, 2S)-2-(1-(2,6-difluorobenzoyl)piperidin-4-yl)cyclopropyl)ethoxy)-N,N-dimethylbenzamide]	106	69		14	1510				
CN(C)C(=O)c1ccc(OCC[C@@H]2C[C@@H]2C2CCN(C(=O)[C@@](O)(c3ccccc3)C(F)(F)F)CC2)nc1Cl (single isomer, unassigned) [Example 10-6, 2-chloro-N,N-dimethyl-6-(2-((1S,2R or 1R,2S)-2-(1-((S or R)-3,3,3-trifluoro-2-hydroxy-2-phenylpropanoyl)piperidin-4-yl)cyclopropyl)ethoxy) nicotinamide]	12	71		36	206				
CN(C)C(=O)c1ccc(OCC[C@@H]2C[C@@H]2C2CCN(C(=O)OCc3ccccc3)CC2)nc1Cl (single isomer, unassigned) [Example 10-7, benzyl 4-((1R,2S or 1S,2R)-2-(2-(6-chloro-5-(dimethylcarbamoyl)pyridin-2-yloxy)ethyl)cyclopropyl) piperidine-1-carboxylate]	49	104		41	861				
CN(C)C(=O)c1ccc(OCCC2CC23CCN(C(=O)C2(c4ccccc4Cl)CCC2)CC3)cc1Cl (single isomer, unassigned) [Example 12-5, (R or S)-2-chloro-4-(2-(6-(1-(2-chlorophenyl)cyclobutanecarbonyl)-6-azaspiro[2.5]octan-1-yl)ethoxy)-N,N-dimethylbenzamide]	3	54		49	91				
CN(C)C(=O)c1ccc(OCCC2CC23CCN(C(=O)C2(c4ccccc4C(F)(F)F)CCC2)CC3)cc1Cl (single isomer, unassigned) [Example 12-6, (R or S)-2-chloro-N,N-dimethyl-4-(2-(6-(1-(2-(trifluoromethyl)phenyl)cyclobutanecarbonyl)-6-azaspiro[2.5]octan-1-yl)ethoxy)benzamide]	4	68		48	80				
CN(C)C(=O)c1ccc(OCCC2CC23CCN(C(=O)C(C)(C)c2ccsc2)CC3)cc1Cl (single isomer, unassigned) [Example 12-7, (R or S)-2-chloro-N,N-dimethyl-4-(2-(6-(2-methyl-2-(thiophen-3-yl)propanoyl)-6-azaspiro[2.5]octan-1-yl)ethoxy)benzamide]	29	64		39	589				
CN(C)C(=O)c1ccc(OCC[C@H]2CC23CCN(C(=O)[C@@](N)(c2ccccc2)C(F)(F)F)CC3)cc1Cl (single isomer, unassigned) [Example 12-8, 4-(2-((R or S)-6-((S or R)-2-amino-3,3,3-trifluoro-2-phenylpropanoyl)-6-azaspiro[2.5]octan-1-yl)ethoxy)-2-chloro-N,N-dimethylbenzamide]	135	67		23	2230				

The remaining compounds from weak to strong by EC50 [1], led by results:

EC50 [1] [nM]	Emax [1] [%]	LXR alpha IP [2, 3]	Emax [2, 4] [%]	EC50 [2, 5] [nM]	EC50 ([2]; LXR alpha IP) [nM]	Emax ([2]; read-out: LXR alpha actiivty at max dose) [%]	Emax [2, 6] [%]	EC50 ([2]; potency (Inflection Point), compound-induced co-activator recruitment, TR-FRET, read-out: LXR alpha IP) [nM]	Structure (SMILES)
661	57		52	10500					Cc1nnc(C(C)(C)C(=O)N2CCC3(CC2)CC3CCOc2ccc(C(=O)N(C)C)c(Cl)c2)s1 (single isomer, unassigned) [Example 12-2, (R or S)-2-chloro-N,N-dimethyl-4-(2-(6-(2-methyl-2-(5-methyl-1,3,4-thiadiazol-2-yl)propanoyl)-6-azaspiro[2.5]octan-1-yl)ethoxy)benzamide]
182	22	No IP	0						CN(C)C(=O)c1ccc(OCCC2CC23CCN(C(=O)C2(c4ccccc4)CCCN(C(=O)OC(C)(C)C)C2)CC3)cc1Cl (single isomer, unassigned) [Example 12-4, tert-butyl 3-((R or S)-1-(2-(3-chloro-4-(dimethylcarbamoyl)phenoxy)ethyl)-6-azaspiro[2.5]octane-6-carbonyl)-3-phenylpiperidine-1-carboxylate]
153	28	No IP	1						CN(C)C(=O)c1ccc(OCCC2CC23CCN(C(=O)Cc2cccc(Br)c2)CC3)cc1Cl (single isomer, unassigned) [Example 12-3, (R or S)-4-(2-(6-(2-(3-bromophenyl)acetyl)-6-azaspiro[2.5]octan-1-yl)ethoxy)-2-chloro-N,N-dimethylbenzamide]
106	78						23	1420	CN(C)C(=O)c1ccc(OCC[C@H]2C[C@H]2C2CCN(C(=O)[C@](O)(c3ccccc3)C(F)(F)F)CC2)cc1C#N (single isomer, unassigned) [Example 11-1, 2-cyano-N,N-dimethyl-4-(2-((1R,2S or 1S,2R)-2-(1-((R or S)-3,3,3-trifluoro-2-hydroxy-2-phenylpropanoyl)piperidin-4-yl)cyclopropyl)ethoxy)benzamide]
24	58	No IP					1		CN(C)C(=O)c1ccc(OCCC2CC23CCN(C(=O)C2(c4ccccc4)CCCC2)CC3)cc1Cl (single isomer, unassigned) [Example 12-1, (R or S)-2-chloro-N,N-dimethyl-4-(2-(6-(1-phenylcyclopentanecarbonyl)-6-azaspiro[2.5]octan-1-yl)ethoxy)benzamide]
7	75		13	209					CNC(=O)c1ccc(OCC[C@@H]2C[C@@H]2C2CCN(C(=O)[C@](O)(c3cccc(OC)c3)C(F)(F)F)CC2)cc1Cl (single isomer, unassigned) [Example 10-5, 2-chloro-N-methyl-4-(2-((1S,2R or 1R, 2S)-2-(1-((R or S)-3,3,3-trifluoro-2-hydroxy-2-(3-methoxyphenyl)propanoyl)piperidin-4-yl)cyclopropyl)ethoxy) benzamide]
2	116		63	28					CNC(=O)c1ccc(OCC[C@@H]2C[C@@H]2C2CCN(C(=O)[C@](O)(c3cc(F)cc(F)c3)C(F)(F)F)CC2)cc1Cl (single isomer, unassigned) [Example 10-3, 2-chloro-4-(2-((1S,2R or 1R, 2S)-2-(1-((R or S)-2-(3,5-difluorophenyl)-3,3,3-trifluoro-2-hydroxypropanoyl)piperidin-4-yl)cyclopropyl)ethoxy)-N-methylbenzamide]
